Measurements taken from patent US20110150769A1, “IDENTIFICATION AND USE OF COMPOUNDS FOR TREATING PERSISTENT PAIN” (priority 2009, published 2011).
“Also recorded” adds a separate entry of the source.

Columns and labels:
[1] = system: acute thermal nociception in mice; assay: Tail immersion test (50° C.) after intrathecal injection; assay type: in vivo, mouse; conditions: naive WT and Mrgpr-clusterΔ−/− mice, 1 mM, 5 μl i.th.
Description: Tail immersion test: mice were gently restrained in a 50-ml conical tube that the mice voluntarily entered. The protruding one third of the tail was then dipped into a 50° C. water bath. Latency to respond to the heat stimulus with vigorous flexion of the tail was measured three times and averaged.
(§1) BAM 8-22 was purchased from Tocris (Bristol, UK) and was suspended in 0.9% saline. The drug was injected intrathecally under brief isoflurane (1.5%) anesthesia to reduce stress. A 30-gauge, 0.5-inch needle connected to a 10-μl syringe was inserted into one side of the L5 or L6 spinous process at an angle of approximately 20° above the vertebral column and slipped into the groove between the spinous and transverse processes. The needle was moved carefully forward to the intervertebral space.
To determine whether intrathecal BAM 8-22 also affected acute thermal nociception, tail-immersion tests in naïve WT and Mrgpr-clusterΔ^−/− mice were performed.

[2] = biological target: T1, rat MrgprC (Rattus norvegicus, UniProt Q8R4G1); conditions: Han et al, 2002, Lembo et al.; cited from earlier work
T1 sequence (Q8R4G1 1-323): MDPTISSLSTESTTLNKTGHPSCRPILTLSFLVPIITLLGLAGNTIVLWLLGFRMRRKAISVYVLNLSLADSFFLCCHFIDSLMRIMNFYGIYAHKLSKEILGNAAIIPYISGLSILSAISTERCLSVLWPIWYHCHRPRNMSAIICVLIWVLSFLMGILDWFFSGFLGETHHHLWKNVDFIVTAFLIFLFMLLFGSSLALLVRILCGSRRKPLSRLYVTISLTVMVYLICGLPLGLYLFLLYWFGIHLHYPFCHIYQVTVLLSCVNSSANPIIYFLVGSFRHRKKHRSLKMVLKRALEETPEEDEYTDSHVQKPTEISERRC

[3] = system: CFA-induced thermal hyperalgesia in mice; assay: CFA-induced heat hyperalgesia (Hargreaves test) after intrathecal injection; assay type: in vivo, mouse
Description: All behavioral tests were performed with an experimenter blinded to the genotype. The mice used in the tests were backcrossed to C57BI/6 mice for at least five generations and were 2 to 3 month-old males (20-30 g).
CFA-induced heat hyperalgesia: the intraplantar region of one hind paw of each mouse was injected with 6 μl of 50% CFA solution or 10 μl of 1% carrageneen solution in saline. Thermal pain sensitivity was assessed by recording paw withdrawal latencies on exposure to a defined radiant heat stimulus (Hargreaves test) before CFA injection and 30 min after injection.
as §1
The ability of BAM 8-22 to modulate persistent inflammatory pain was determined by examining enhanced pain sensitivity to a noxious heat stimulus, as monitored by the Hargreaves test 24 hours after intra-plantar injection of CFA (6 μl, 50%) into one hind paw. […] In WT mice, a single intrathecal injection of BAM 8-22 (1 mM, 5 μl) was able to alleviate thermal hyperalgesia at 30 min post-injection, increasing the PWL by 1.9-fold compared to pre-drug baseline (FIG. 6A, WT, n=13, ipsilateral paw).

[4] = biological target: human MrgprX1 (Homo sapiens, UniProt Q96LB2); conditions: literature; cited from earlier work
[5] = biological target: T2, mouse MrgprC11 (Mus musculus, UniProt Q8CIP3); conditions: Han et al, 2002, Lembo et al.; cited from earlier work
T2 sequence (Q8CIP3 1-322): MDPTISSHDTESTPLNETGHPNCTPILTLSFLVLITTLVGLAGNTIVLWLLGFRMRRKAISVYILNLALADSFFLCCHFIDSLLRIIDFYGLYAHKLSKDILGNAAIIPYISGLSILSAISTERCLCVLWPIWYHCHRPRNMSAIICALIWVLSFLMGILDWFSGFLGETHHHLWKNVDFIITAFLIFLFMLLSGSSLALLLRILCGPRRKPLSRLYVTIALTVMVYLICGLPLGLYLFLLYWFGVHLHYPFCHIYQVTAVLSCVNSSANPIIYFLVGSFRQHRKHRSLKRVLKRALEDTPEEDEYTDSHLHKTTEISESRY

[6] = system: chronic constriction injury model of neuropathic pain in mice; assay: CCI-induced mechanical allodynia (von Frey test) after intrathecal injection; assay type: in vivo, mouse; conditions: 0.5 mM, 5 μl i.th.
Description: A chronic constriction injury (CCI) at the left sciatic nerve was induced in adult male mice. Inhalation anesthesia was induced with a constant level of isoflurane (2.0%) delivered through a nose cone. Under aseptic conditions, the left sciatic nerve at the middle thigh level was separated from the surrounding tissue and loosely tied with three nylon sutures (9-0 nonabsorbable-monofilament, S&T AG, Neuhausen, Switzerland). The distance between two adjacent ligatures was around 0.5 mm.
CCI-induced mechanical allodynia: mechanical sensitivity was assessed with the von Frey test using the frequency method. Two calibrated von Frey monofilaments (low force: 0.07 g and high force: 0.45 g) were used. Each von Frey filament was applied perpendicularly to the plantar side of each hind paw for approximately 1 sec; the stimulation was repeated 10 times to both hind paws. The occurrence of paw withdrawal in each of these 10 trials was expressed as a percent response frequency: paw withdrawal frequency (PWF)=(number of paw withdrawals/10 trials)×100%.
BAM 8-22 was purchased from Tocris (Bristol, UK) and was suspended in 0.9% saline. The drug was injected intrathecally under brief isoflurane (1.5%) anesthesia to reduce stress. […]

human MrgprX1, sequence (Q96LB2 whole entry): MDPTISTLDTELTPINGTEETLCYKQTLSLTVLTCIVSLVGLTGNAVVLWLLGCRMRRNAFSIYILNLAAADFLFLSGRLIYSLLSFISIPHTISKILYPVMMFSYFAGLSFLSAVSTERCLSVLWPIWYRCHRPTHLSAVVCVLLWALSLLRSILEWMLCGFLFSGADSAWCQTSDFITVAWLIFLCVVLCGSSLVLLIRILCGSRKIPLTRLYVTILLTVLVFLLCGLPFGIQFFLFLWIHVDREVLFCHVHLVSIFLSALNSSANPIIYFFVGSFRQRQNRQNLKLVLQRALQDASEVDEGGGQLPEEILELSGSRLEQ

BAM 8-22
tail flick latency vs pre-drug [1]: not significantly different; also recorded: did not significantly change | activation of rat MrgprC [2]: specifically activates | anti-hyperalgesic effect, ipsilateral hind paw ([3]; Mrgpr-clusterΔ−/− mice, 1 mM, 5 μl i.th., 24 h after CFA): not observed | sensitivity to acute radiant heat (Hargreaves test) ([3]; WT and Mrgpr-clusterΔ−/− mice, contralateral hind paw): did not significantly change | thermal hyperalgesia of the ipsilateral hind paw ([3]; WT mice, 1 mM, 5 μl i.th., 24 h after CFA): significantly alleviated | increase of paw withdrawal latency (PWL) compared to pre-drug baseline ([3]; WT mice, ipsilateral paw, 1 mM, 5 μl i.th., 30 min post-injection, 24 h after CFA): 1.9 fold | PWL of the contralateral (control side) hind paw ([3]; either group (WT, Mrgpr-clusterΔ−/−), 1 mM, 5 μl i.th.): did not significantly affect | activation of human MrgprX1 [4]: specifically activates | activation of mouse MrgprC11 [5]: specifically activates | CCI-induced mechanical pain hypersensitivity (paw withdrawal frequency), ipsilateral hind paw ([6]; WT mice, low-force 0.07 g and high-force 0.45 g, 14-18 days post-injury, after 30 min): significantly attenuated; also recorded: significantly reduced | paw withdrawal responses (PWF) of the contralateral, uninjured side ([6]; either group): did not significantly change; also recorded: did not significantly reduce
